Measurements: patent publication US8716284B2, “Adamantyl diamide derivatives and uses of same” (H. Lundbeck A/S, priority 2008, dated 2014)

What follows are molecules tested against T1, rat metabotropic glutamate receptor 5 (mGluR5) (Rattus norvegicus, UniProt P31424) (assay: Calcium mobilization assay (FLIPR) for negative or positive allosteric activity, HEK 293 cells). Details: HEK293, negative allosteric modulation, inhibition of EC80 glutamate response; read-out: FLIPR maximum inhibition.
T1 construct: expressed in transfected cells; host or cells: HEK 293
Format: cell-based
Procedure: The cDNA for rat metabotropic glutamate receptor 5 (mGluR5) was a generous gift from S. Nakanishi (Kyoto University, Kyoto, Japan). The mGluR5 was stably expressed in a HEK 293 cell line and grown in Dulbecco's Modified Eagle Medium (DMEM) (Invitrogen, Carlsbad, Calif.) with supplements (10% bovine calf serum, 4 mM glutamine, 100 units/mL penicillin, 100 μg/mL streptomycin and 0.75 mM G1418) at 37° C., 5% CO2. Twenty-four hours prior to assay, cells were seeded into 384-well black wall microtiter plates coated with poly-D-lysine. Just prior to assay, media was aspirated and cells dye-loaded (25 μL/well) with 3 μM Fluo-4/0.01% pluronic acid in assay buffer (Hank's Balanced Saline Solution (HBSS)): 150 mM NaCl, 5 mM KCl, 1 mM CaCl2, 1 mM MgCl2, plus 20 mM N-2-Hydroxyethylpiperazine-N′-2-ethanesulfonic acid (HEPES), pH 7.4, 0.1% bovine serum albumin (BSA) and 2.5 mM probenicid) for 1 hour in 5% CO2 at 37° C. After excess dye was discarded, cells were washed in assay buffer and layered with a final volume equal to 30 μL/well. Basal fluorescence is monitored in a fluorometric imaging plate reader (FLIPR) (Molecular Devices, Sunnyvale, Calif.) with an excitation wavelength of 488 nm and an emission range of 500 to 560 nm. Laser excitation energy was adjusted so that basal fluorescence readings were approximately 10,000 relative fluorescent units. Cells were stimulated with an EC20 or an EC80 concentration of glutamate in the presence of a compound to be tested, both diluted in assay buffer, and relative fluorescent units were measured at defined intervals (exposure=0.6 sec) over a 3 min period at room temperature. Basal readings derived from negative controls were subtracted from all samples. Maximum change in fluorescence was calculated for each well. Concentration-response curves derived from the maximum change in fluorescence were analyzed by nonlinear regression (Hill equation). A negative modulator can be identified from these concentration-response curves if a compound produces a concentration dependent inhibition of the EC80 glutamate response. […] Examples 11-163 also were tested in the above assay.
A positive modulator can be identified from these concentration-response curves if a compound produces a concentration dependent increase in the EC20 glutamate response.

T1 sequence (P31424 21-1171 isoform P31424-2 limits assumed): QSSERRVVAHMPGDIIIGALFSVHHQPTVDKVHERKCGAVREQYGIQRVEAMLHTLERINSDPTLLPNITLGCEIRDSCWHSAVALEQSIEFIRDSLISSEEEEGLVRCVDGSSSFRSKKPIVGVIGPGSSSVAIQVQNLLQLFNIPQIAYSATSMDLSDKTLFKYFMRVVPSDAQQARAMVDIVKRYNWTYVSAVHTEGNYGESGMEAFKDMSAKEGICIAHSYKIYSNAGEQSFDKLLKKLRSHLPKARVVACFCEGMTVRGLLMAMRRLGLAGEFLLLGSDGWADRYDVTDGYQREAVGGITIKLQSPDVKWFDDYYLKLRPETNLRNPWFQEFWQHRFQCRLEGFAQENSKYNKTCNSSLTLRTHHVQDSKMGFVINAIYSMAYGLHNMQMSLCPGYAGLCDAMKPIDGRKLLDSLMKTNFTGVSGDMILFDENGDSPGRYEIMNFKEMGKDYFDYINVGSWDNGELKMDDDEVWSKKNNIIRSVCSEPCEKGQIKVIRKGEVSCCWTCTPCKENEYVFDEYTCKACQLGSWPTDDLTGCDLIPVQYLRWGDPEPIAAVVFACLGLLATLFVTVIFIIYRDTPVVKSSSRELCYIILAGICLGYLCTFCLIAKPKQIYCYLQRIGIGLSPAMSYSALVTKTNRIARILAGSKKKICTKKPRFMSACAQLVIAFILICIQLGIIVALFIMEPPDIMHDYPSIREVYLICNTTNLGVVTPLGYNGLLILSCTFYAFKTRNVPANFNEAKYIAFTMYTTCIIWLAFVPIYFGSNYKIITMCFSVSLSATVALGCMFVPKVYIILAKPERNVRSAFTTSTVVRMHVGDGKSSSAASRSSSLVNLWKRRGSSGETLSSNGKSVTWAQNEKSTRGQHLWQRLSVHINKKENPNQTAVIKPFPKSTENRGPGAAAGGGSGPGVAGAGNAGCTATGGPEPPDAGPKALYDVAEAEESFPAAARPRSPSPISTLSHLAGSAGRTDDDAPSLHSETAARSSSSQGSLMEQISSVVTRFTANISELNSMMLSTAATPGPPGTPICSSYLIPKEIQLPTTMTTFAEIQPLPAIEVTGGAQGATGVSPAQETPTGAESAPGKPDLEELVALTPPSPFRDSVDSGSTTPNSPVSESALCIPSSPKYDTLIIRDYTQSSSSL

Row | Emax | SMILES
1 | 63 to 99% | Cc1cccc(C(=O)NC23CC4CC(C2)CC(NC(=O)c2cccc(N5CCOCC5)n2)(C4)C3)n1 [Example 22, 6-Morpholin-4-yl-pyridine-2-carboxylic acid-{3-[(6-methyl-pyridine-2-carbonyl)-amino]-adamantan-1-yl}-amide]
2 | 63 to 99% | Cc1cccc(C(=O)NC23CC4CC(C2)CC(NC(=O)c2cccc(C(F)(F)F)n2)(C4)C3)n1 [Example 23, 6-Trifluoromethyl-pyridine-2-carboxylic acid {3-[(6-methyl-pyridine-2-carbonyl)-amino]-adamantan-1-yl}-amide]
3 | 63 to 99% | Cc1cccc(C(=O)NC23CC4CC(CC(NC(=O)c5cccnn5)(C4)C2)C3)n1 [Example 24, Pyridazine-3-carboxylic acid {3-[(6-methyl-pyridine-2-carbonyl)-amino]-adamantan-1-yl}-amide]
4 | 63 to 99% | Cc1cccc(C(=O)NC23CC4CC(C2)CC(NC(=O)c2cccc(CC#N)n2)(C4)C3)n1 [Example 25, 6-Cyanomethyl-pyridine-2-carboxylic acid {3-[(6-methyl-pyridine-2-carbonyl)-amino]-adamantan-1-yl}-amide]
5 | 63 to 99% | Cc1cccc(C(=O)NC23CC4CC(CC(NC(=O)c5cc(C6CC6)on5)(C4)C2)C3)n1 [Example 26, 6-Methyl-pyridine-2-carboxylic acid {3-[(5-cyclopropyl-isoxazole-3-carbonyl)-amino]-adamantan-1-yl}-amide]
6 | 63 to 99% | Cc1cccc(C(=O)NC23CC4CC(C2)CC(NC(=O)c2ccc5cccnc5n2)(C4)C3)n1 [Example 27, [1,8]Naphthyridine-2-carboxylic acid {3-[(6-methyl-pyridine-2-carbonyl)-amino]-adamantan-1-yl}-amide]
7 | 63 to 99% | Cc1ccnc(C(=O)NC23CC4CC(C2)CC(NC(=O)c2cccc(C)n2)(C4)C3)c1 [Example 28, 4-Methyl-pyridine-2-carboxylic acid {3-[(6-methyl-pyridine-2-carbonyl)-amino]-adamantan-1-yl}-amide]
8 | 63 to 99% | Cc1cccc(C(=O)NC23CC4CC(C2)CC(NC(=O)c2coc(C)n2)(C4)C3)n1 [Example 29, 6-Methyl-pyridine-2-carboxylic acid {3-[(2-methyl-oxazole-4-carbonyl)-amino]-adamantan-1-yl}-amide]
9 | 63 to 99% | Cc1cccc(C(=O)NC23CC4CC(CC(NC(=O)c5cccc(F)c5)(C4)C2)C3)n1 [Example 30, 6-Methyl-pyridine-2-carboxylic acid [3-(3-fluoro-benzoylamino)-adamantan-1-yl]-amide]
10 | 63 to 99% | Cc1cccc(C(=O)NC23CC4CC(C2)CC(NC(=O)c2ccno2)(C4)C3)n1 [Example 31, 6-Methyl-pyridine-2-carboxylic acid {3-[(isoxazole-5-carbonyl)-amino]-adamantan-1-yl}-amide]
11 | 63 to 99% | Cc1cccc(C(=O)NC23CC4CC(CC(NC(=O)c5cccc(C#N)c5)(C4)C2)C3)n1 [Example 32, 6-Methyl-pyridine-2-carboxylic acid [3-(3-cyano-benzoylamino)-adamantan-1-yl]-amide]
12 | 63 to 99% | Cc1cccc(C(=O)NC23CC4CC(CC(NC(=O)c5ccc6occc6c5)(C4)C2)C3)n1 [Example 33, 6-Methyl-pyridine-2-carboxylic acid {3-[(benzofuran-5-carbonyl)-amino]-adamantan-1-yl}-amide]
13 | 63 to 99% | Cc1cccc(C(=O)NC23CC4CC(C2)CC(NC(=O)c2cnc5ccccc5n2)(C4)C3)n1 [Example 34, Quinoxaline-2-carboxylic acid {3-[(6-methyl-pyridine-2-carbonyl)-amino]-adamantan-1-yl}-amide]
14 | 63 to 99% | Cc1cccc(C(=O)NC23CC4CC(CC(NC(=O)c5ccncn5)(C4)C2)C3)n1 [Example 35, Pyrimidine-4-carboxylic acid {3-[(6-methyl-pyridine-2-carbonyl)-amino]-adamantan-1-yl}-amide]
15 | 63 to 99% | Cc1cccc(C(=O)NC23CC4CC(C2)CC(NC(=O)c2nc5ccccc5s2)(C4)C3)n1 [Example 36, Benzothiazole-2-carboxylic acid {3-[(6-methyl-pyridine-2-carbonyl)-amino]-adamantan-1-yl}-amide]
16 | 63 to 99% | Cc1cccc(C(=O)NC23CC4CC(C2)CC(NC(=O)c2nn(C)c5ccccc25)(C4)C3)n1 [Example 37, 1-Methyl-1H-indazole-3-carboxylic acid {3-[(6-methyl-pyridine-2-carbonyl)-amino]-adamantan-1-yl}-amide]
17 | 63 to 99% | Cc1cccc(C(=O)NC23CC4CC(C2)CC(NC(=O)c2scc5c2OCCO5)(C4)C3)n1 [Example 38, 6-Methyl-pyridine-2-carboxylic acid {3-[(2,3-dihydro-thieno[3,4-b][1,4]dioxine-5-carbonyl)-amino]-adamantan-1-yl}-amide]
18 | 63 to 99% | Cc1cccc(C(=O)NC23CC4CC(CC(NC(=O)c5cc(C)on5)(C4)C2)C3)n1 [Example 39, 6-Methyl-pyridine-2-carboxylic acid {3-[(5-methyl-isoxazole-3-carbonyl)-amino]-adamantan-1-yl}-amide]
19 | 63 to 99% | Cc1cccc(C(=O)NC23CC4CC(C2)CC(NC(=O)c2nccs2)(C4)C3)n1 [Example 40, 6-Methyl-pyridine-2-carboxylic acid {3-[(thiazole-2-carbonyl)-amino]-adamantan-1-yl}-amide]
20 | 63 to 99% | CCn1ccc(C(=O)NC23CC4CC(CC(NC(=O)c5cccc(C)n5)(C4)C2)C3)n1 [Example 42, 6-Methyl-pyridine-2-carboxylic acid {3-[(1-ethyl-1H-pyrazole-3-carbonyl)-amino]-adamantan-1-yl}-amide]
21 | 63 to 99% | COc1cccc(C(=O)NC23CC4CC(C2)CC(NC(=O)c2cccc(C)n2)(C4)C3)c1 [Example 43, 6-Methyl-pyridine-2-carboxylic acid [3-(3-methoxy-benzoylamino)-adamantan-1-yl]-amide]
22 | 63 to 99% | Cc1cccc(C(=O)NC23CC4CC(CC(NC(=O)c5cccc(CCl)c5)(C4)C2)C3)n1 [Example 45, 6-Methyl-pyridine-2-carboxylic acid [3-(3-chloromethyl-benzoylamino)-adamantan-1-yl]-amide]
23 | 63 to 99% | Cc1cccc(C(=O)NC23CC4CC(C2)CC(NC(=O)C2CCC2)(C4)C3)n1 [Example 46, 6-Methyl-pyridine-2-carboxylic acid [3-(cyclobutanecarbonyl-amino)-adamantan-1-yl]-amide]
24 | 63 to 99% | Cc1cccc(C(=O)NC23CC4CC(C2)CC(NC(=O)C2CC(F)(F)C2)(C4)C3)n1 [Example 47, 6-Methyl-pyridine-2-carboxylic acid {3-[(3,3-difluoro-cyclobutanecarbonyl)-amino]-adamantan-1-yl}-amide]
25 | 63 to 99% | Cc1cccc(C(=O)NC23CC4CC(C2)CC(NC(=O)c2c5ccccc5nn2C)(C4)C3)n1 [Example 49, 2-Methyl-2H-indazole-3-carboxylic acid {3-[(6-methyl-pyridine-2-carbonyl)-amino]-adamantan-1-yl}-amide]
26 | 63 to 99% | Cc1cccc(C(=O)NC23CC4CC(C2)CC(NC(=O)c2cn5cc(Cl)ccc5n2)(C4)C3)n1 [Example 50, 6-Chloro-imidazo[1,2-a]pyridine-2-carboxylic acid {3-[(6-methyl-pyridine-2-carbonyl)-amino]-adamantan-1-yl}-amide]
27 | 63 to 99% | Cc1cccc(C(=O)NC23CC4CC(CC(NC(=O)c5ccn6ccnc6c5)(C4)C2)C3)n1 [Example 51, Imidazo[1,2-a]pyridine-7-carboxylic acid {3-[(6-methyl-pyridine-2-carbonyl)-amino]-adamantan-1-yl}-amide]
28 | 63 to 99% | Cc1cccc(C(=O)NC23CC4CC(C2)CC(NC(=O)c2cn5ccccc5n2)(C4)C3)n1 [Example 52, Imidazo[1,2-a]pyridine-2-carboxylic acid {3-[(6-methyl-pyridine-2-carbonyl)-amino]-adamantan-1-yl}-amide]
29 | 63 to 99% | Cc1cccc(C(=O)NC23CC4CC(CC(NC(=O)c5ccc6nccn6c5)(C4)C2)C3)n1 [Example 53, Imidazo[1,2-a]pyridine-6-carboxylic acid {3-[(6-methyl-pyridine-2-carbonyl)-amino]-adamantan-1-yl}-amide]
30 | 63 to 99% | Cc1ccc2nc(C(=O)NC34CC5CC(CC(NC(=O)c6cccc(C)n6)(C5)C3)C4)cn2c1 [Example 54, 6-Methyl-imidazo[1,2-a]pyridine-2-carboxylic acid {3-[(6-methyl-pyridine-2-carbonyl)-amino]-adamantan-1-yl}-amide]
